The target of experiment [1] is T1, BRM (Homo sapiens, UniProt P51531).
T1 construct: made in house; host or cells: High Five insect cells
Briefly: ATPase catalytic activity of BRM, ADP-Glo in vitro biochemical assay. To be noted: ATPase catalytic activity, 30 nM BRM, 400 μM ATP, read-out: BRM IP50 (μM)*. A general note: ADP-Glo turns the ADP formed in a reaction into a luminescent signal.

The target of experiment [2] is T2, BRG-1 (Homo sapiens, UniProt P51532).
T2 construct: made in house; host or cells: High Five insect cells
T2 sequence (P51532 whole entry): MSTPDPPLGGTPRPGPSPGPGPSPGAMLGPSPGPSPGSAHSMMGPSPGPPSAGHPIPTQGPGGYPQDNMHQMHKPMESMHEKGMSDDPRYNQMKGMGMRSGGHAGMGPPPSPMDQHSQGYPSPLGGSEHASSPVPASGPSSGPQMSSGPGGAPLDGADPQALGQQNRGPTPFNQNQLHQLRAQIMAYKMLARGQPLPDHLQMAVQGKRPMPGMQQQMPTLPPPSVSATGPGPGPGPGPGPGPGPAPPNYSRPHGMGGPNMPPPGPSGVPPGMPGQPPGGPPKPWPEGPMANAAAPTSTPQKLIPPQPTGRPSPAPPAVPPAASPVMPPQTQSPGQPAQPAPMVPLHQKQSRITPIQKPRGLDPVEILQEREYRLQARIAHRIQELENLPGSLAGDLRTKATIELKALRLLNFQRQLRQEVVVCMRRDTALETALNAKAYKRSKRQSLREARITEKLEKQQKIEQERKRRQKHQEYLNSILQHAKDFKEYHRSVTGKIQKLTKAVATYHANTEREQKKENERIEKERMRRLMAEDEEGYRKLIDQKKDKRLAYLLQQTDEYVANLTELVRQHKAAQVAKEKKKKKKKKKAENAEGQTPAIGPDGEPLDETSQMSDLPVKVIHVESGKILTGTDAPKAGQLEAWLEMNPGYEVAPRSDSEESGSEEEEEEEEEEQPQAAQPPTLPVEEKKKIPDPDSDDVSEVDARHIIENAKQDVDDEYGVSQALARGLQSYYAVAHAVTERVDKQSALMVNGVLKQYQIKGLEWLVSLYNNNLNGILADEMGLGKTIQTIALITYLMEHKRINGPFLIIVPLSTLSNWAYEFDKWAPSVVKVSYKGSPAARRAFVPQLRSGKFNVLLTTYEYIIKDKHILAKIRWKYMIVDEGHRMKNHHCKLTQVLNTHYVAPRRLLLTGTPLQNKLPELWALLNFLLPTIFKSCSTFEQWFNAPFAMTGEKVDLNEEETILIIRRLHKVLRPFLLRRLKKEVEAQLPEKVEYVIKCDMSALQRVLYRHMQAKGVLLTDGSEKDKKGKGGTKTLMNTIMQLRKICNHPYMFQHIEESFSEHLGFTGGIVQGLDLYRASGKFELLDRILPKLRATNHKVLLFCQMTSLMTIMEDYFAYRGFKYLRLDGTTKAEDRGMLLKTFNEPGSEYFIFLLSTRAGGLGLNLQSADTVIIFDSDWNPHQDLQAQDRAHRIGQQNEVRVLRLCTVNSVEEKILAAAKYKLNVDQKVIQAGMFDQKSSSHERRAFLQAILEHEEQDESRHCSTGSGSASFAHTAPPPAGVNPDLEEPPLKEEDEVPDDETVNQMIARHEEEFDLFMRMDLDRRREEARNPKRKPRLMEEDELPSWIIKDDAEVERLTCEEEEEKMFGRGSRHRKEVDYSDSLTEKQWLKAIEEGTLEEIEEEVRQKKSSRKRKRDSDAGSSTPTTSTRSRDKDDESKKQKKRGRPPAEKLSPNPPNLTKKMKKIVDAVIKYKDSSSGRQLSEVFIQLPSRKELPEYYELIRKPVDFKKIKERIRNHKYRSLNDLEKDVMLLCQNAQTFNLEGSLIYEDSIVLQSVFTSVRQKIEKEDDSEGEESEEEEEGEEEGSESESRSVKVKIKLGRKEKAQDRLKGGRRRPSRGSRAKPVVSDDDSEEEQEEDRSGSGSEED
In words: ATPase catalytic activity of BRG-1, ADP-Glo in vitro biochemical assay. To be noted: ATPase catalytic activity, 30 nM BRG-1, 400 μM ATP, read-out: BRG1 IP50 (μM)*.

Bounds are passed on as bounds.

T1 sequence (P51531 whole entry): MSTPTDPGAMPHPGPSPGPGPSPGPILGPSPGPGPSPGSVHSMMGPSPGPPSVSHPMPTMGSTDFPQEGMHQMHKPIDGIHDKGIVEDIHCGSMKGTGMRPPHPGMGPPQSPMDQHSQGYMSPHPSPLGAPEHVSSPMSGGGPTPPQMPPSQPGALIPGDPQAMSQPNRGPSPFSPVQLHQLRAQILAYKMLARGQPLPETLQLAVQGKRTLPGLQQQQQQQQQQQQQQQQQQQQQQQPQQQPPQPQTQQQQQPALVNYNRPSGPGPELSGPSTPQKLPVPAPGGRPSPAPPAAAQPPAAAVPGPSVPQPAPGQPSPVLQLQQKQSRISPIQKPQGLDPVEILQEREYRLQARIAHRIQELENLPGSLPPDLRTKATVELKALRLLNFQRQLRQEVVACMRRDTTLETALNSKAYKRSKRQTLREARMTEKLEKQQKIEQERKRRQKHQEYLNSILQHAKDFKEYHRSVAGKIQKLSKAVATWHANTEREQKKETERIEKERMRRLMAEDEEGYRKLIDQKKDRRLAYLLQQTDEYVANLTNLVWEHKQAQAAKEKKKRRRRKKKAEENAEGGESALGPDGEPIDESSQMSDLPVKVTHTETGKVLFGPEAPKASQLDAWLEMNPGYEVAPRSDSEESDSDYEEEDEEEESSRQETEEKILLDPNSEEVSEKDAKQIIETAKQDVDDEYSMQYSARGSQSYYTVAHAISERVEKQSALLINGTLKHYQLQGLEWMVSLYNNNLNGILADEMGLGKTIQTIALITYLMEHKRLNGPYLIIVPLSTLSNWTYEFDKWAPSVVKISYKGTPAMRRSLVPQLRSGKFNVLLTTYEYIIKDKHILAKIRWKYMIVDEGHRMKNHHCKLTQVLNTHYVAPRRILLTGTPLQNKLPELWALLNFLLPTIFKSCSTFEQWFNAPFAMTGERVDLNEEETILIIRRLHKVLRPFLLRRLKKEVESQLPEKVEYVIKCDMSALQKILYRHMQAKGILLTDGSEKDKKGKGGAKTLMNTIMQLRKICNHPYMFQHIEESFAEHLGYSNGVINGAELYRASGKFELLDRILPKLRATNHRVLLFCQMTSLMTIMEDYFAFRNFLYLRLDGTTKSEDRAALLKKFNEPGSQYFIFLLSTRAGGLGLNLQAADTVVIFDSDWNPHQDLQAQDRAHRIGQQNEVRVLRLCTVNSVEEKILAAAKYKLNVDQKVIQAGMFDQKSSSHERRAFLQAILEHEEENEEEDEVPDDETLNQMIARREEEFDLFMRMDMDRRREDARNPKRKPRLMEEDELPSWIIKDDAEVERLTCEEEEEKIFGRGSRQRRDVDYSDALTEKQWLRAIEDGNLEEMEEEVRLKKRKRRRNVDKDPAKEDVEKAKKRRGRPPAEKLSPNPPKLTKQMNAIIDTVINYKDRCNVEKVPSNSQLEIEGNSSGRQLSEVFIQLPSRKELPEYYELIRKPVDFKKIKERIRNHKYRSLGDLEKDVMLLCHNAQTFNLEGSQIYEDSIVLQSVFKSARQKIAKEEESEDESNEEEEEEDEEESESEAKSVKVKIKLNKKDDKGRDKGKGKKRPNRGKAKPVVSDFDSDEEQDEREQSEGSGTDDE

Consider `CN1CCc2cc(-c3csc(NC(=O)CNC(=O)c4ccn(S(C)(=O)=O)c4)n3)ccc2C1` [Compound 130, N-(2-((4-(2-methyl-1,2,3,4-tetrahydroisoquinolin-6-yl)thiazol-2-yl)amino)-2-oxoethyl)-1-(methylsulfonyl)-1H-pyrrole-3-carboxamide], for which the IC50 in experiment [1] and in experiment [2] was above 0.1 µM in each case.
In the case of `Cn1ncc2ccc(-c3csc(NC(=O)CNC(=O)c4ccn(C(C)(C)C)c4)n3)cc21` [Compound 131, 1-(tert-butyl)-N-(2-((4-(1-methyl-1H-indazol-6-yl)thiazol-2-yl)amino)-2-oxoethyl)-1H-pyrrole-3-carboxamide], the IC50 in experiment [1] was above 0.01 µM; in experiment [2] it was above 0.1 µM.
Take `Cn1ncc2ccc(-c3csc(NC(=O)CNC(=O)c4ccn(S(C)(=O)=O)c4)n3)cc21` [Compound 132, N-(2-((4-(1-methyl-1H-indazol-6-yl)thiazol-2-yl)amino)-2-oxoethyl)-1-(methylsulfonyl)-1H-pyrrole-3-carboxamide]: the IC50 in experiment [1] and in experiment [2] was above 0.01 µM in each case.
With `Cn1c(=O)ccc2ccc(-c3csc(NC(=O)CNC(=O)c4ccn(C(C)(C)C)c4)n3)cc21` [Compound 133, 1-(tert-butyl)-N-(2-((4-(1-methyl-2-oxo-1,2-dihydroquinolin-7-yl)thiazol-2-yl)amino)-2-oxoethyl)-1H-pyrrole-3-carboxamide], the IC50 in experiment [1] and in experiment [2] was above 0.1 µM throughout.
As to `CN1Cc2ccc(-c3csc(NC(=O)CNC(=O)c4ccn(C(C)(C)C)c4)n3)cc2N(C)C1=O` [Compound 134, 1-(tert-butyl)-N-(2-((4-(1,3-dimethyl-2-oxo-1,2,3,4-tetrahydroquinazolin-7-yl)thiazol-2-yl)amino)-2-oxoethyl)-1H-pyrrole-3-carboxamide], the IC50 in experiment [1] is above 0.01 µM; in experiment [2] it was above 0.1 µM.
`CC(C)(C)n1ccc(C(=O)NCC(=O)Nc2nc(-c3cccc(CO[C@H]4CCOC4)c3)cs2)c1` [Compound 135, (S)-1-(tert-butyl)-N-(2-oxo-2-((4-(3-(((tetrahydrofuran-3-yl)oxy)methyl)phenyl)thiazol-2-yl)amino)ethyl)-1H-pyrrole-3-carboxamide]: the IC50 in experiment [1] and in experiment [2] was above 0.01 µM in each case.
For the compound `CC(C)(C)n1ccc(C(=O)NCC(=O)Nc2nc(-c3cccc(CO[C@@H]4CCOC4)c3)cs2)c1` [Compound 136, (R)-1-(tert-butyl)-N-(2-oxo-2-((4-(3-(((tetrahydrofuran-3-yl)oxy)methyl)phenyl)thiazol-2-yl)amino)ethyl)-1H-pyrrole-3-carboxamide], the IC50 in experiment [1] and in experiment [2] was above 0.01 µM in each case.
Turning to `CN1CCc2ccc(-c3csc(NC(=O)CNC(=O)c4ccn(S(C)(=O)=O)c4)n3)cc2C1=O` [Compound 137, N-(2-((4-(2-methyl-1-oxo-1,2,3,4-tetrahydroisoquinolin-7-yl)thiazol-2-yl)amino)-2-oxoethyl)-1-(methylsulfonyl)-1H-pyrrole-3-carboxamide], the results for the IC50 in experiment [1] and in experiment [2] were above 0.01 µM and below 0.01 µM, respectively.
Consider `CS(=O)(=O)n1ccc(C(=O)NCC(=O)Nc2nc(-c3cccc(C4(N)CCOCC4)c3)cs2)c1` [Compound 138, N-(2-((4-(3-(4-aminotetrahydro-2H-pyran-4-yl)phenyl)thiazol-2-yl)amino)-2-oxoethyl)-1-(methylsulfonyl)-1H-pyrrole-3-carboxamide], for which the IC50 in experiment [1] and in experiment [2] was above 1 µM in each case.
On to `CC(C)(O)c1cccc(-c2csc(NC(=O)CNC(=O)c3ccn(S(C)(=O)=O)c3)n2)c1` [Compound 139, N-(2-((4-(3-(2-hydroxypropan-2-yl)phenyl)thiazol-2-yl)amino)-2-oxoethyl)-1-(methylsulfonyl)-1H-pyrrole-3-carboxamide], for which the IC50 in experiment [1] and in experiment [2] was above 0.1 µM each time.
On to `CC(C)(C)c1cccc(-c2csc(NC(=O)CNC(=O)c3ccn(S(C)(=O)=O)c3)n2)c1` [Compound 140, N-(2-((4-(3-(tert-butyl)phenyl)thiazol-2-yl)amino)-2-oxoethyl)-1-(methylsulfonyl)-1H-pyrrole-3-carboxamide], for which the IC50 in experiment [1] and in experiment [2] was above 0.1 µM each time.
With `CS(=O)(=O)n1ccc(C(=O)NCC(=O)Nc2nc(-c3cccc(C4(O)CCOCC4)c3)cs2)c1` [Compound 141, N-(2-((4-(3-(4-hydroxytetrahydro-2H-pyran-4-yl)phenyl)thiazol-2-yl)amino)-2-oxoethyl)-1-(methylsulfonyl)-1H-pyrrole-3-carboxamide], the IC50 in experiment [1] and in experiment [2] was above 0.1 µM in each case.
For the compound `CC(C)(C)n1ccc(C(=O)NCC(=O)Nc2nc(-c3ccc4cncnc4c3)cs2)c1` [Compound 142], the IC50 in experiment [1] and in experiment [2] was above 0.1 µM each time.
Consider `CN1CCn2nc(-c3cccc(-c4csc(NC(=O)CNC(=O)c5ccn(C(C)(C)C)c5)n4)c3)cc2C1` [Compound 143, 1-(tert-butyl)-N-(2-((4-(3-(5-methyl-4,5,6,7-tetrahydropyrazolo[1,5-a]pyrazin-2-yl)phenyl)thiazol-2-yl)amino)-2-oxoethyl)-1H-pyrrole-3-carboxamide], for which the IC50 in experiment [1] and in experiment [2] was above 0.1 µM in each case.
For the compound `Cn1ccc(-c2cccc(-c3csc(NC(=O)CNC(=O)c4ccn(C5(C)COC5)c4)n3)c2)n1` [Compound 144], the IC50 in experiment [1] and in experiment [2] was above 0.01 µM throughout.
For the compound `Cn1ccc(-c2cccc(-c3csc(NC(=O)CNC(=O)c4ccn(C(C)(C)C)c4)n3)n2)n1` [Compound 145], the IC50 in experiment [1] and in experiment [2] was above 0.01 µM in each case.
For `CS(=O)(=O)n1ccc(C(=O)NCC(=O)Nc2nc(-c3c[nH]c(-c4ccncc4)n3)cs2)c1` [Compound 146, 1-(methylsulfonyl)-N-(2-oxo-2-((4-(2-(pyridin-4-yl)-1H-imidazol-4-yl)thiazol-2-yl)amino)ethyl)-1H-pyrrole-3-carboxamide], the IC50 in experiment [1] and in experiment [2] was above 1 µM throughout.
Turning to `CS(=O)(=O)n1ccc(C(=O)NCC(=O)Nc2nc(-c3cccc(OCc4ccncc4)n3)cs2)c1` [Compound 147], the IC50 in experiment [1] was below 0.01 µM; in experiment [2], above 0.01 µM.
As to `CS(=O)(=O)n1ccc(C(=O)NCC(=O)Nc2nc(-c3cccc(/C=C/c4ccncc4)c3)cs2)c1` [Compound 150], the IC50 in experiment [1] and in experiment [2] was below 0.01 µM each time.
With `CS(=O)(=O)n1ccc(C(=O)NCC(=O)Nc2nc(-c3cccc(CCc4ccncc4)c3)cs2)c1` [Compound 151, 1-(methylsulfonyl)-N-(2-oxo-2-((4-(3-(2-(pyridin-4-yl)ethyl)phenyl)thiazol-2-yl)amino)ethyl)-1H-pyrrole-3-carboxamide], the IC50 in experiment [1] and in experiment [2] was below 0.01 µM in each case.
As to `CN(C(=O)CNC(=O)c1ccn(S(C)(=O)=O)c1)c1nc(-c2cccc(-c3ccncc3)c2)cs1` [Compound 152], the IC50 in experiment [1] and in experiment [2] was above 0.1 µM in each case.
For the compound `CC(C)(NC(=O)c1ccn(S(C)(=O)=O)c1)C(=O)Nc1nc(-c2cccc(-c3ccncc3)c2)cs1` [Compound 153], the IC50 in experiment [1] and in experiment [2] was above 0.1 µM in each case.
As to `Cc1cc(-c2cccc(-c3csc(NC(=O)CNC(=O)c4ccn(S(C)(=O)=O)c4)n3)c2)ccn1` [Compound 154], the IC50 in experiment [1] and in experiment [2] was below 0.01 µM each time.
As to `CS(=O)(=O)n1ccc(C(=O)NCC(=O)Nc2cccc(-c3cccc(-c4ccncc4)c3)n2)c1` [Compound 156, 1-(methylsulfonyl)-N-(2-oxo-2-((6-(3-(pyridin-4-yl)phenyl)pyridin-2-yl)amino)ethyl)-1H-pyrrole-3-carboxamide], the IC50 in experiment [1] and in experiment [2] was above 0.01 µM in each case.
For `CC1(C)OCC12CN(c1cccc(-c3csc(NC(=O)CNC(=O)c4ccn(S(C)(=O)=O)c4)n3)c1)C2` [Compound 157], the IC50 in experiment [1] and in experiment [2] was above 0.1 µM throughout.
With `C[C@H]1CN(c2cccc(-c3csc(NC(=O)CNC(=O)c4ccn(S(C)(=O)=O)c4)n3)c2)[C@@H](C)CO1` [Compound 160], the IC50 in experiment [1] is above 0.01 µM; in experiment [2], above 0.1 µM.
The matching figures for `CO[C@@H]1CCCN(c2cccc(-c3csc(NC(=O)CNC(=O)c4ccn(S(C)(=O)=O)c4)n3)c2)C1` [Compound 161]: above 0.01 µM and above 0.01 µM.
The matching figures for `C[C@@H]1CN(c2cccc(-c3csc(NC(=O)CNC(=O)c4ccn(C(C)(C)C#N)c4)n3)c2)C[C@H](C)O1` [Compound 162]: below 0.01 µM and below 0.01 µM.
In the case of `C[C@@H]1CN(c2cccc(-c3csc(NC(=O)CNC(=O)c4ccn(C5(C#N)CC5)c4)n3)c2)C[C@H](C)O1` [Compound 163], the IC50 in experiment [1] is below 0.01 µM; in experiment [2], above 0.01 µM.
The matching figures for `CC1(C)CN(c2cccc(-c3csc(NC(=O)CNC(=O)c4ccn(S(C)(=O)=O)c4)n3)c2)CC[C@H]1O` [Compound 164]: below 0.01 µM and above 0.01 µM.
Turning to `CC1(C)CN(c2cccc(-c3csc(NC(=O)CNC(=O)c4ccn(S(C)(=O)=O)c4)n3)c2)CC[C@@H]1O` [Compound 165], the IC50 in experiment [1] and in experiment [2] was above 0.01 µM throughout.
On to `CO[C@@H]1CN(c2cccc(-c3csc(NC(=O)CNC(=O)c4ccn(S(C)(=O)=O)c4)n3)c2)C[C@H]1F` [Compound 168], for which the IC50 in experiment [1] and in experiment [2] was above 0.01 µM in each case.
As for `CS(=O)(=O)n1ccc(C(=O)NCC(=O)Nc2nc(-c3cccc(N4CCC(CO)(C(F)(F)F)C4)c3)cs2)c1` (stereo not shown) [Compound 169], the IC50 in experiment [1] and in experiment [2] was above 0.1 µM in each case.
For `CS(=O)(=O)n1ccc(C(=O)NCC(=O)Nc2nc(-c3cccc(N4CC5(CCCCO5)C4)c3)cs2)c1` [Compound 170], the IC50 in experiment [1] and in experiment [2] was above 0.01 µM throughout.
Regarding `CS(=O)(=O)n1ccc(C(=O)NCC(=O)Nc2nc(-c3cccc(N4CC5(CCCOC5)C4)c3)cs2)c1` [Compound 171], the IC50 in experiment [1] and in experiment [2] was above 0.1 µM throughout.
